Here are results for 11 compounds from ChEMBL document CHEMBL1201862, “PubChem BioAssay data set” (2004).

Each structure is given as a SMILES string.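 Dose response: 5 concentrations. Exposure: 48 h. Format: 96-well plates. Endpoint: linear interpolation; highest concentration if not reached. Abbreviation: GI50, concentration required for 50% inhibition of growth.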 Calls of active or inactive are those of the source. Rule as the data show it: active = GI50 up to about 1.1 µM and inactive = higher.

Among the test systems are CAKI-1; UO-31; TK-10; NCI-H522; MOLT-4; HCT-116; COLO 205; DU-145; IGROV-1; NCI-H23; SW-620; UACC-257; SR; KM12; HT-29; EKVX; T47D; Hs-578T; SF-295; MDA-N.
Common to all, as to assay: NCI tumour cell line growth inhibition, 48 h

On to `Cc1ccc([N+](=O)[O-])c2c(NCCC[N+](C)(C)[O-])c3ccccc3nc12`, for which the GI50 in the test on CAKI-1 is 21 µM (inactive); in the test with UO-31, 16.1 µM (inactive); with TK-10 it was 11.6 µM (inactive); in the test on NCI-H522, 0.204 µM (active); with MOLT-4, 0.33 µM (active); with HCT-116 it was 1.52 µM (inactive). Moreover, the GI50 in the test on COLO 205 is 1.02 µM (active); with DU-145, 1.43 µM (inactive); in the test with IGROV-1, 1.19 µM (inactive); in the test with NCI-H23 it was 0.573 µM (active); with SW-620, 2.18 µM (inactive); in the test on UACC-257, 2.41 µM (inactive). Further, the GI50 in the test on SR is 0.218 µM (active); in the test on KM12, 1.79 µM (inactive); in the test on HT-29, 1.48 µM (inactive); in the test with EKVX, 1.11 µM (active); with T47D it was 0.916 µM (active); in the test with Hs-578T, 3.24 µM (inactive). For the same compound, the GI50 with SF-295 was 3.43 µM (inactive).
For `CN1C(C(=O)Nc2ccccn2)=C(O)c2ccccc2S1(=O)=O` [PIROXICAM], the GI50 in the test with CAKI-1, in the test on UO-31, in the test on TK-10, in the test with NCI-H522, with MOLT-4 and in the test with HCT-116 was > 100 µM (inactive) in each case. For the same compound, the GI50 with COLO 205, with DU-145, with NCI-H23, in the test with SW-620, in the test on MDA-N and in the test on UACC-257 was > 100 µM (inactive) throughout. In addition, the GI50 in the test with SR, with KM12, with HT-29, in the test on EKVX, with T47D and in the test on SF-295 was > 100 µM (inactive) each time.
`C/C=C\C(CC(=O)NCCc1cn(C(=O)OCc2ccccc2)c2ccccc12)CC(=O)OC` (stereo not given): the GI50 is > 100 µM (inactive) in the test with CAKI-1; 50.8 µM (inactive) in the test with UO-31; > 100 µM (inactive) with TK-10; 48.8 µM (inactive) with NCI-H522; 48 µM (inactive) in the test with MOLT-4; 91.4 µM (inactive) in the test on HCT-116. For the same compound, the GI50 with COLO 205 is 40.6 µM (inactive); with DU-145, > 100 µM (inactive); in the test on IGROV-1, 76.7 µM (inactive); in the test with NCI-H23, 89.5 µM (inactive); in the test with SW-620 it was > 100 µM (inactive); in the test on MDA-N, 79.1 µM (inactive). Moreover, the GI50 was 52.8 µM (inactive) with UACC-257; 62.5 µM (inactive) in the test on KM12; 48.5 µM (inactive) with HT-29; 45.2 µM (inactive) in the test with EKVX; > 100 µM (inactive) in the test with Hs-578T; 57 µM (inactive) in the test on SF-295.
In the case of `[O-][n+]1onc2c1CCC(=N\O)/C2=N/Nc1ccccc1`, the GI50 in the test on CAKI-1, in the test on UO-31, in the test on TK-10, in the test with NCI-H522, in the test on MOLT-4 and with HCT-116 was > 100 µM (inactive) each time. For the same compound, the GI50 with COLO 205, with DU-145, with IGROV-1, in the test with NCI-H23, in the test on SW-620 and with MDA-N was > 100 µM (inactive) throughout. Besides, the GI50 with UACC-257, in the test with SR, in the test with KM12, in the test with HT-29, with EKVX and with Hs-578T was > 100 µM (inactive) throughout. Also, the GI50 with SF-295 was > 100 µM (inactive).
As to `C=CC[C@H](O)[C@@](NC(=O)OCc1ccccc1)(Sc1ccc(C)cc1)C(F)(F)F`, the GI50 is 24.7 µM (inactive) in the test on CAKI-1; 17.9 µM (inactive) with UO-31; 33.8 µM (inactive) in the test with TK-10; 15.5 µM (inactive) in the test with NCI-H522; 20.3 µM (inactive) in the test with MOLT-4; 20.5 µM (inactive) in the test on HCT-116. In addition, the GI50 in the test with COLO 205 was 20.3 µM (inactive); in the test on DU-145, 35.7 µM (inactive); in the test on IGROV-1 it was 10.1 µM (inactive); with NCI-H23 it was 24.5 µM (inactive); in the test on SW-620 it was 32.1 µM (inactive); in the test on MDA-N, 19.2 µM (inactive). Further, the GI50 is 23.4 µM (inactive) in the test with UACC-257; 20.1 µM (inactive) in the test with SR; 25.8 µM (inactive) in the test with KM12; 23.9 µM (inactive) in the test with HT-29; 30.6 µM (inactive) with EKVX; 24 µM (inactive) in the test with Hs-578T. Also, the GI50 in the test with SF-295 is 21.9 µM (inactive).
In the case of `COc1ccc2c(c1)C1c3ccccc3CCN1CCC2` (stereo not given), the GI50 with CAKI-1 is > 100 µM (inactive); in the test with UO-31, 26.9 µM (inactive); in the test with TK-10, > 100 µM (inactive); in the test on NCI-H522, 28.4 µM (inactive); with MOLT-4, 35.6 µM (inactive); in the test with HCT-116 it was 32.1 µM (inactive). For the same compound, the GI50 with COLO 205 is 44.7 µM (inactive); in the test on DU-145, > 100 µM (inactive); in the test with IGROV-1 it was 56.6 µM (inactive); in the test with NCI-H23, 47.9 µM (inactive); in the test with SW-620 it was 28.2 µM (inactive); with UACC-257, 39.6 µM (inactive). Further, the GI50 in the test on SR is 32.2 µM (inactive); in the test with KM12, 29.4 µM (inactive); in the test with HT-29 it was 33.3 µM (inactive); with EKVX, > 100 µM (inactive); in the test with T47D, > 100 µM (inactive); with Hs-578T, 42.9 µM (inactive). In addition, the GI50 with SF-295 was 23.8 µM (inactive).
With `CCCCCCCCCC(=O)NC(CCC(=O)N(CCNC(=O)c1nc(-c2ccccc2)oc1-c1ccccc1)Cc1ccccc1)C(=O)O` (stereo not given), the GI50 in the test with CAKI-1 was 16.7 µM (inactive); in the test with UO-31, 15.2 µM (inactive); in the test on TK-10 it was 22.4 µM (inactive); with NCI-H522, 18.5 µM (inactive); in the test with MOLT-4, 22.4 µM (inactive); in the test on HCT-116, 17.7 µM (inactive). Besides, the GI50 was 19.6 µM (inactive) in the test on COLO 205; 20.3 µM (inactive) in the test on DU-145; 19.5 µM (inactive) in the test with IGROV-1; 17.9 µM (inactive) with NCI-H23; 23.3 µM (inactive) with SW-620; 18.4 µM (inactive) with MDA-N. For the same compound, the GI50 was 23.4 µM (inactive) in the test with UACC-257; 19.7 µM (inactive) in the test on KM12; 18 µM (inactive) in the test on HT-29; 16.6 µM (inactive) with EKVX; 20.4 µM (inactive) with T47D; 18.1 µM (inactive) in the test on SF-295.
Regarding `CN(C)c1ccc(/C=C/C=c2/c3ccccc3n3c2cc(-c2ccccc2)[n+]3C)cc1`, the GI50 with CAKI-1 was 0.251 µM (active); with UO-31 it was 0.333 µM (active); with TK-10, 0.564 µM (active); in the test with NCI-H522, 0.0548 µM (active); with MOLT-4, 0.0881 µM (active); in the test with HCT-116, 0.0386 µM (active). Moreover, the GI50 is 0.0698 µM (active) in the test on COLO 205; 0.0931 µM (active) in the test with DU-145; 0.238 µM (active) in the test on IGROV-1; 0.188 µM (active) in the test with NCI-H23; 0.0731 µM (active) in the test on SW-620; 0.234 µM (active) in the test on MDA-N. Further, the GI50 with UACC-257 is 0.182 µM (active); with KM12, 0.0598 µM (active); in the test with HT-29, 0.275 µM (active); with EKVX it was 0.254 µM (active); in the test on T47D, 0.0735 µM (active); in the test on SF-295, 0.288 µM (active).
For `CCOC(=O)c1cc(-c2ccc(OC)cc2)c([N+](=O)[O-])n1C`, the GI50 in the test with UO-31, in the test with NCI-H522, with MOLT-4, in the test with HCT-116, with DU-145 and with IGROV-1 was > 10 µM (inactive) each time. Besides, the GI50 was > 10 µM (inactive) with NCI-H23; 8.91 µM (inactive) in the test on MDA-N; > 10 µM (inactive) with UACC-257; 9.1 µM (inactive) in the test on SR; > 10 µM (inactive) in the test with KM12; > 10 µM (inactive) in the test with HT-29. Besides, the GI50 with EKVX, in the test with Hs-578T and with SF-295 was > 10 µM (inactive) each time.
Turning to `FC(F)(F)c1cc(Cl)cnc1N/N=C(/c1ccccc1)c1ccccn1`, the GI50 is 3.37 µM (inactive) with CAKI-1; 2.94 µM (inactive) with UO-31; 1.57 µM (inactive) in the test with NCI-H522; 1.31 µM (inactive) in the test with MOLT-4; 3.16 µM (inactive) in the test with HCT-116; 2.03 µM (inactive) in the test with COLO 205. The GI50 in the test with DU-145 is 4.46 µM (inactive); in the test with IGROV-1, 1.92 µM (inactive); with NCI-H23, 2.55 µM (inactive); with SW-620 it was 3.85 µM (inactive); in the test on MDA-N, 17.8 µM (inactive); with UACC-257 it was 3.04 µM (inactive). In addition, the GI50 in the test on SR was 0.708 µM (active); in the test with KM12, 1.85 µM (inactive); with HT-29, 0.248 µM (active); in the test with EKVX, 1.03 µM (active); in the test with Hs-578T, 0.422 µM (active); with SF-295 it was 2.16 µM (inactive).
Consider `Cc1ccc(-n2cc(-c3ccc(Cl)cc3)c3c(NN)ncnc32)cc1`, for which the GI50 is 4.33 µM (inactive) with CAKI-1; 3.82 µM (inactive) in the test with UO-31; 12.4 µM (inactive) in the test on TK-10; 3.58 µM (inactive) in the test with NCI-H522; 2.36 µM (inactive) with MOLT-4; 2.4 µM (inactive) in the test on HCT-116. Moreover, the GI50 in the test on COLO 205 is 1.72 µM (inactive); with DU-145 it was 3.49 µM (inactive); with IGROV-1, 1.85 µM (inactive); in the test with NCI-H23, 3.04 µM (inactive); with SW-620, 6.07 µM (inactive); in the test with MDA-N it was 8.83 µM (inactive). For the same compound, the GI50 is 3.97 µM (inactive) in the test on UACC-257; 3.41 µM (inactive) in the test with SR; 10.7 µM (inactive) with KM12; 4.48 µM (inactive) in the test on HT-29; 3.3 µM (inactive) with EKVX; 2.55 µM (inactive) with T47D. Also, the GI50 with SF-295 was 3.36 µM (inactive).
